For one data set, the system named is cultured tumour cells. Conditions: cultured tumour cells in vitro; cited from earlier work.
The subject of data set [1] is patients with solid tumours. Put plainly: Clinical Study 1: toxicity and efficacy in monotherapy, two p.o. administration regimes. The procedure:
A clinical study was set up to test the toxicity and efficacy of N-hydroxy-4-{2-[3-(N,N-dimethylaminomethyl)benzofuran-2-ylcarbonylamino]ethoxy}benzamide hydrochloride. 36 patients with solid tumours were included and treated in this study. A first administration regime was tested over a cycle of three weeks, with 14 consecutive days of 2 p.o. administrations 4 hours apart, followed by a week without treatment. Four dosage levels were successively tested from 30 to 75 mg/m^2 (expressed as a salt) twice daily. The acceptability of the various N-hydroxy-4-{2-[3-(N,N-dimethylaminomethyl)-benzofuran-2-ylcarbonylamino]ethoxy}benzamide dose levels were evaluated (especially, haematological toxicities) at the end of the first cycle.
This cycle can be repeated as many times as necessary for treatment of the cancer.

Another data set relates to xenograft models. To be noted: in vivo; cited from earlier work.
In data set [2] the test system is histone deacetylase (HDAC). To be noted: cited from earlier work.

We go through 1 compound from US8883199B2, “Administration regime for N-hydroxy-4-{2-[3-(N,N-dimethylaminomethyl)benzofuran-2-ylcarbonylamino]ethoxy}benzamide” (priority 2011, dated 2014).

On to `CN(C)Cc1c(C(=O)NCCOc2ccc(C(=O)NO)cc2)oc2ccccc12` [N-hydroxy-4-{2-[3-(N,N-dimethylaminomethyl)benzofuran-2-ylcarbonylamino]ethoxy}benzamide], for which, in the data set on cultured tumour cells, the apoptosis result is “induces apoptosis” and the cell growth result is given as “inhibition of cell growth”. For the same compound, the maximum tolerated dose in data set [1] (first regime: 14 consecutive days of 2 p.o. administrations 4 hours apart, then a week without treatment, hydrochloride, dose expressed as a salt, 36 patients with solid tumours) was 75 mg/m^2 twice daily. Moreover, in data set [1] (human, in vivo), the “platelet toxicity, second regime compared with first regime” value is given as “less platelet toxicity than the previous regime” and the reversibility of thrombopenias entry was “reversible”. Further, the “toxicities which limited increasing the dose” value in data set [1] (human, in vivo, 3 weeks) is “grade 4 thrombopenias”. This compound also displayed a recommended dose in data set [1] (human, in vivo, po, 3 weeks) of 90 mg/m^2 twice daily. The compound also returned a maximum tolerated dose in data set [1] (second regime: 4 consecutive days of 2 p.o. administrations 4 hours apart, then 3 days without treatment, each of the 3 weeks of a cycle) of 105 mg/m^2 twice daily. In the data set with xenograft models, the tumour growth entry is “inhibits tumour growth”. The “histone deacetylase (HDAC) inhibition” value in data set [2] is given as “powerful”.
